We go through 11 molecules from patent publication US10322165B2, “TIFA antagonists and their use for treating diseases” (ACADEMIA SINICA, priority 2017, dated 2019).

One series has as its system NF-κB. The series can be described thus: Luciferase reporter assay and western blot for NF-κB activity. To be noted: for TNF-α-dependent NF-κB activation and elevations of NF-κB signaling factors: U937 cells stably expressing the fragment, 10 ng/mL TNF-α for 30 min. It is filed as cell-based. Here is the method:
After 5 repeated freeze-thaw cycles, cell extracts were cleared by centrifugation at 4° C. Cell extracts were quantified using Bradford assay, and equal amounts of soluble proteins were mixed with SDS sample buffer, boiled, separated by SDS-PAGE, and blotted onto PVDF membranes (Millipore). Membranes were then blocked for 1 h with 5% dry milk in PBST (PBS supplemented with 0.1% Tween-20) buffer and incubated for overnight at 4° C. with primary antibody diluted in PBST containing 1% bovine serum albumin (Sigma). After three washes with PBST, membranes were incubated with HRP-conjugated anti-mouse or anti-rabbit IgG. […] All western blot analyses were performed independently at least three times except that of primary PBMCs.
Luciferase-based NF-κB reporter assay was conducted as previously described (20). A total of 6×10^5 293T or 10^6 suspension U937 Cells in one well of 6-well plates with indicated conditions were transiently transfected with 2 μg of pNF-κB-Luc reporter plasmid for 48 h before harvest. Cells were treated with 10 ng/mL TNF-α (R&D Systems) for 30 min and lysed with 1× passive lysis buffer (Promega). 100 μg of cell lysates was dispensed into a well of 96-well plate, followed by addition of 100 μL of luciferase assay buffer LARII (Promega) and 100 μL of Stop & Glo reagent (Promega). The triplicated chemiluminescence were measured by SpectraMax Paradigm Multi-Mode Plate Reader (Molecular Devices) and normalized to corresponding β-actin level from a parallel western blot analysis of cell lysates. Results were represented as relative luminescence units (RLU) from three independent experiments.
In general terms: In a reporter assay the amount or activity of a reporter protein is the signal.

Series [1] concerns AML cell lines HL-60, KG-1, THP-1, and U937. The series can be described thus: WST-1 viability assay, growth of AML lines. Format: cell-based. To be noted: WST-1, time course after TIFA silencing. Background: Tetrazolium assays rely on reduction of a dye to a coloured formazan, in cell work by metabolically active cells.
Description: (§1) To silence specific genes, 6×10^5293T cells or 10^6 suspension cells were transfected with 30 pmol (293T cells) or 50 pmol (suspension cells) of indicated siRNA supplemented with 9 or 15 μL of Lipofectamine RNAiMAX (Invitrogen) in the presence of Opti-MEM (Invitrogen) according to the manufacturer's instruction. Six hours after primary transfection, cells were incubated with the regular medium for 24 h, and the secondary siRNA transfection was performed with the same protocol. Cells or conditional media were collected after 72 h of incubation.
(§2) A total of 10^5 suspension cells under indicated condition were seeded per well in 96-well plates and cell viability was analyzed at the indicated time point post treatment.
Series [2] has as its system acute lymphoblastic leukemia (ALL) line Jurkat and CML line K562. Briefly: WST-1 viability assay, proliferation of ALL and CML lines. Format: cell-based.
Description: as §1, §2
For the next series, the system named is AML PBMCs. The series can be described thus: WST-1 viability and chemosensitivity of freshly isolated AML PBMCs. It is filed as cell-based, human. As to conditions: TIFA silencing. From the text:
Hela, 293T, and HL-60 cell lines were obtained from Dr. Li-Jung Juan of Academia Sinica (Taipei, Taiwan, 2014), KG-1 cell line was obtained from Prof. Shih-Lan Hsu of Taichung Veterans General Hospital (Taichung, Taiwan, 2015), and the rest of cell lines were obtained from Dr. Shui-Tein Chen of Academia Sinica (Taipei, Taiwan, 2015). All cell lines were expanded and stored in liquid nitrogen when received. Original vials were thawed for these experiments and authenticated simultaneously by STR DNA fingerprinting using the Promega GenePrint® 10 System and analyzed by ABI PRISM 3730 GENETIC ANALYZER and GeneMapper® softeware. All resulting SI R profiles were matched with known ATCC fingerprints (ATCC.org). Maintenance of respective cell lines followed our previous protocols (20,27,28). 293T and HeLa cells were maintained in Dulbecco's modified Eagle's medium (DMEM, Gibco). […] All media were supplemented with 10% decomplemented fetal bovine serum (FBS, Gibco), […] L-glutamine (Gibco), 100 U/mL penicillin (Gibco) and 100 μg/mL streptomycin (Gibco). All cells were incubated in a humidified atmosphere at 37° C. with 5% CO2. To isolate human PBMCs, freshly acquired whole bloods were layered over Ficoll (GE healthcare) as previously described (28). Isolated primary cells were maintained according to a previously described protocol (29) and subjected to experimental analyses within two weeks. […]

In series [3] the test system is U937 cells. Briefly: WST-1 viability of cytarabine-treated U937 cells. To be noted: 5 μg/mL etanercept, 50 nM bortezomib, or 1 μM ABT-263 together with 10 μM cytarabine. Format: cell-based.
Description: as §2
For another series, the system named is J5 (liver cancer cells). The series can be described thus: WST-1 cytotoxicity of anti-cancer treatments with or without TIFA silencing. It is filed as cell-based. As to conditions: 4th day, Sorafenib 5 μM, Cisplatin 5 μM, Etoposide 10 μM, IR 5Gy.
Series [4] concerns MCF-7 (breast cancer cells). Described as above. It is filed as cell-based. To be noted: 4th day, Sorafenib 5 μM, Cisplatin 5 μM, Etoposide 10 μM, IR 5Gy.
Description: (§3) For transient transfection of 293T cells, 6×10^5 cells were transfected with 2 μg of indicated plasmid DNA using Jet-PEI (Polyplus Transfection) for 48 h (pCDNA3.1 vector, HA-tagged TIFA, and pNF-κB-Luc) or 24 h (Flag-tagged Aurora A) according to the manufacturer's instruction. For transient transfection of U937 cells, 10^6 suspension cells were transfected with 3 μg of the pNF-κB-Luc plasmid DNA using Lipofectamine 2000 (Invitrogen) for 48 h according to the manufacturer's instruction. To silence specific genes, 6×10^5293T cells or 10^6 suspension cells were transfected with 30 pmol (293T cells) or 50 pmol (suspension cells) of indicated siRNA supplemented with 9 or 15 μL of Lipofectamine RNAiMAX (Invitrogen) in the presence of Opti-MEM (Invitrogen) according to the manufacturer's instruction. Six hours after primary transfection, cells were incubated with the regular medium for 24 h, and the secondary siRNA transfection was performed with the same protocol. Cells or conditional media were collected after 72 h of incubation.
as §2
(§4) Cytotoxicity of cells at the 4th day was normalized to treatment without TIFA silencing and presented.
The subject of series [5] is MDA-MB-231 (breast cancer cells). The description is as above. To be noted: 4th day, Sorafenib 5 μM, Cisplatin 5 μM, Etoposide 10 μM, IR 5Gy. It is filed as cell-based.
Description: as §3, §2, §4
Series [6] concerns NTera2 (testicular embryonic carcinoma). The description is as above. It is filed as cell-based. As to conditions: 4th day, Sorafenib 5 μM, Cisplatin 5 μM, Etoposide 10 μM, IR 5Gy.
Description: as §3, §2, §4
Series [7] has as its system AML lines (HL-60, KG-1, THP-1, U937). Briefly: WST-1 based survival test, IC50 of chemo drugs in AML lines. Format: cell-based. As to conditions: all four tested AML lines; siTIFA vs control siRNA.
The next series deals with A549 (lung cancer cells). Briefly: WST-1 cytotoxicity of anti-cancer treatments with or without TIFA silencing. As to conditions: 4th day, Sorafenib 5 μM, Cisplatin 5 μM, Etoposide 10 μM, IR 5Gy.
The next series relates to H446 (lung cancer cells). The series is described as above. As to conditions: 4th day, Sorafenib 5 μM, Cisplatin 5 μM, Etoposide 10 μM, IR 5Gy.
The test system of series [8] is HeLa (cervical cancer cells). The description is as above. As to conditions: 4th day, Sorafenib 5 μM, Cisplatin 5 μM, Etoposide 10 μM, IR 5Gy.
Description: as §3, §2, §4
Series [9] deals with HepG2 (liver cancer cells). The series is described as above. As to conditions: 4th day, Sorafenib 5 μM, Cisplatin 5 μM, Etoposide 10 μM, IR 5Gy.
Description: as §3, §2, §4
For a further series, the system named is Jurkat (leukaemia cells). The description is as above. As to conditions: 4th day, Sorafenib 5 μM, Cisplatin 5 μM, Etoposide 10 μM, IR 5Gy.
The next series concerns K562 (leukaemia cells). The series is described as above. To be noted: 4th day, Sorafenib 5 μM, Cisplatin 5 μM, Etoposide 10 μM, IR 5Gy.
A further series has as its system THP-1 (leukaemia cells). The description is as above. To be noted: 4th day, Sorafenib 5 μM, Cisplatin 5 μM, Etoposide 10 μM, IR 5Gy.
Series [10] deals with U2OS (osteosarcoma cells). The description is as above. To be noted: 4th day, Sorafenib 5 μM, Cisplatin 5 μM, Etoposide 10 μM, IR 5Gy.
Description: as §3, §2, §4
The subject of series [11] is U937 cells. The series can be described thus: Cytokine antibody array and ELISA of secreted cytokines. It is filed as cell-based. As to conditions: 10 μM cytarabine, conditioned media. Here is the method:
Condition media from equal numbers of cultured U937 cells were collected at 72 h post indicated treatments and assessed by the Human Cytokine Array C1 according to the manufacturer's instruction (AAH-CYT-1, RayBiotech). Data were acquired using the ImageJ software and normalized to the positive controls. When indicated, the amounts of secreted cytokines and chemokines in the conditional mediums were determined by the enzyme-linked immunosorbent assay (ELISA) test kit following the manufacturer's instructions (R&D Systems). The absorbances of triplicated samples were read by SpectraMax Paradigm Plate Reader (Molecular Devices).

The target of another series is T1, endogenous TIFA (Homo sapiens, UniProt Q96CG3).
T1 construct: endogenous in cells; host or cells: U937 cells (retrovirally transduced with Myc-tagged TIFA fragments)
T1 sequence (Q96CG3 1-184): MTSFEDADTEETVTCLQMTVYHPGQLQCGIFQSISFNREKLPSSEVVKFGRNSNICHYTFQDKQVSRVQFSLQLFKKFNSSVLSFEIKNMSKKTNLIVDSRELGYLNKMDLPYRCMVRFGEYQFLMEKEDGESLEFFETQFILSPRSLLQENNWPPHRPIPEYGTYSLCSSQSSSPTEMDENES
The series can be described thus: Immunoprecipitation of lysates from transduced U937 cells. Format: binding. To be noted: U937 cells stably expressing Myc-tagged fragment; anti-Myc immunobeads, western blot. For orientation: A western blot detects proteins with antibodies after separation by electrophoresis.

Description for A549 (lung cancer cells): as §3, §2, §4
Description for H446 (lung cancer cells): as §3, §2, §4
Description for J5 (liver cancer cells): as §3, §2, §4
Description for Jurkat (leukaemia cells): as §3, §2, §4
Description for K562 (leukaemia cells): as §3, §2, §4
Description for THP-1 (leukaemia cells): as §3, §2, §4

Turning to “5′-UCAGGACAAACAGGUUUCCCGAGUU-3′ [TIFA siRNA]”, the “elevation of activated NF-κB, phosphorylated IκK and IκB, and NF-κB-driven luciferase activity” value in the series on NF-κB (overexpression of Aurora A (293T) or TNF-α treatment (U937), silencing of TIFA) is recorded as “negated”. In series [1], the “growth of AML cell lines” value is on record as “attenuates the growth”. Further, in series [2], the cell proliferation entry is listed as “inhibited”. In addition, the “growth of AML PBMCs” value with AML PBMCs (WST-1 time course) is “growth retardation”. Moreover, the “chemosensitivities of patient-derived PBMCs” value with AML PBMCs (chemo drug treatments, WST-1) is “consistently promoted chemosensitivities”.

As to `CC1(C)CCC(c2ccc(Cl)cc2)=C(CN2CCN(c3ccc(C(=O)NS(=O)(=O)c4ccc(N[C@H](CCN5CCOCC5)CSc5ccccc5)c(S(=O)(=O)C(F)(F)F)c4)cc3)CC2)C1` [ABT-263], in the series with U937 cells [3], the “cytotoxicity of cytarabine-treated U937 cells” value is on record as “enhanced the cytotoxicity”.

On to `COc1cc([C@@H]2c3cc4c(cc3[C@@H](O[C@@H]3O[C@@H]5CO[C@@H](C)O[C@H]5[C@H](O)[C@H]3O)[C@H]3COC(=O)[C@H]23)OCO4)cc(OC)c1O` [Etoposide, etoposide], for which the “fold change of cytotoxicity (cytotoxicity of TIFA silencing/cytotoxicity of non-silencing)” value with J5 (liver cancer cells) came out at 1.64 fold changes; in series [4], 1.30 fold changes; in series [5] it was 1.46 fold changes; in [6], 1.15 fold changes; in the series on A549 (lung cancer cells), 1.77 fold changes; with H446 (lung cancer cells), 1.27 fold changes. Besides, the “fold change of cytotoxicity (cytotoxicity of TIFA silencing/cytotoxicity of non-silencing)” value in series [8] is reported as 1.29 fold changes; in series [9] it was 1.61 fold changes; in the series on Jurkat (leukaemia cells), 1.79 fold changes; with K562 (leukaemia cells), 2.28 fold changes; in the series with THP-1 (leukaemia cells), 1.59 fold changes; in series [10], 1.48 fold changes. Besides, the “decrease in IC50 of the chemo drug under TIFA silencing” value (shortened to “decrease in IC50 of the chemo drug”) in series [7] is “ca. 50%”.

For `CNC(=O)c1cc(Oc2ccc(NC(=O)Nc3ccc(Cl)c(C(F)(F)F)c3)cc2)ccn1` [Sorafenib, sorafenib], in [4], the “fold change of cytotoxicity (cytotoxicity of TIFA silencing/cytotoxicity of non-silencing)” value was found to be 1.47 fold changes.

As to `Cc1cc(Nc2cc(N3CCN(C)CC3)nc(Sc3ccc(NC(=O)C4CC4)cc3)n2)n[nH]1` [VX680], the cell proliferation entry in series [2] was “inhibited”.

In the case of `CC(C)C[C@H](NC(=O)[C@H](Cc1ccccc1)NC(=O)c1cnccn1)B(O)O` [bortezomib], in the series on U937 cells [3], the “cytotoxicity of cytarabine-treated U937 cells” value is “enhanced the cytotoxicity”.

For `Nc1ccn([C@@H]2O[C@H](CO)[C@@H](O)[C@@H]2O)c(=O)n1` [cytarabine], the “decrease in IC50 of the chemo drug” value in series [7] is on record as “ca. 50%”. In the series on U937 cells [11], the “secretion of IL-6” value is recorded as “suppressed”; the “secretion of TNF-α, CXCL-1, and IL-8” value is “promoted”.

Take `CC(=O)[C@]1(O)Cc2c(O)c3c(c(O)c2[C@@H](O[C@H]2C[C@H](N)[C@H](O)[C@H](C)O2)C1)C(=O)c1ccccc1C3=O` [idarubicin]: the “decrease in IC50 of the chemo drug” value in series [7] is reported as “ca. 50%”.

Regarding etanercept, the “cytotoxicity of cytarabine-treated U937 cells” value in the series with U937 cells [3] is “enhanced the cytotoxicity”.

B1: F1F2: dominant-negative TIFA fragment: Thr9 segment (F1) plus dimerization-core (F2), Myc-tagged, expressed by retroviral transduction (protein)
chain: MTSFEDADTEETVTCLQMTVYHPGQLQCGIFQSISFNREKLPSSEVVKFGRNSNICHYTFQDKQVSRVQFSLQLFKKFNSSVLSFEIKNMSKKTNLIVDSREL
modifications: left off: small tags and cut ends
notes: dominant-negative TIFA fragment: Thr9 segment (F1) plus dimerization-core (F2), Myc-tagged, expressed by retroviral transduction
For B1, the “TNF-α-dependent NF-κB activation and elevations of NF-κB signaling factors” value with NF-κB was “attenuated”. Besides, the “pull down of endogenous TIFA” value with endogenous TIFA was “able to pull down endogenous TIFA”.

B2: F2F3: dominant-negative TIFA fragment: dimerization-core (F2) plus TRAF6/TRAF2 interacting segment (F3), Myc-tagged, expressed by retroviral transduction (protein)
chain: VVKFGRNSNICHYTFQDKQVSRVQFSLQLFKKFNSSVLSFEIKNMSKKTNLIVDSRELGYLNKMDLPYRCMVRFGEYQFLMEKEDGESLEFFETQFILSPRSLLQENNWPPHRPIPEYGTYSLCSSQSSSPTEMDENES
modifications: left off: small tags and cut ends
In the case of B2, the “TNF-α-dependent NF-κB activation and elevations of NF-κB signaling factors” value with NF-κB is given as “attenuated”. Moreover, the “pull down of endogenous TIFA” value with endogenous TIFA is “able to pull down endogenous TIFA”.
